Measurements as given in US20260055083A1, “APOL1 INHIBITORS AND METHODS OF USE” (Maze Therapeutics, Inc., priority 2022, published 2026).

Assays:
APOL1 G2 [1] = target: T1, APOL1 G2 (Homo sapiens, UniProt O14791, DEL388-389); assay: APOL1 G2 FLIPR calcium influx assay (HEK T-REx/GCaMP6f/APOL1 G2 K6.3 cells); type: cell-based; details: HEK293 clone expressing GCaMP6f, doxycycline-induced APOL1 G2; prevention of calcium influx; geometric mean of at least 2 assay runs
T1 construct: expressed in transfected cells; host or cells: HEK293/T-REx APOL1 G2 clone #2, doxycycline-inducible
T1 sequence (O14791 with tags, fused parts or gaps DEL388-389): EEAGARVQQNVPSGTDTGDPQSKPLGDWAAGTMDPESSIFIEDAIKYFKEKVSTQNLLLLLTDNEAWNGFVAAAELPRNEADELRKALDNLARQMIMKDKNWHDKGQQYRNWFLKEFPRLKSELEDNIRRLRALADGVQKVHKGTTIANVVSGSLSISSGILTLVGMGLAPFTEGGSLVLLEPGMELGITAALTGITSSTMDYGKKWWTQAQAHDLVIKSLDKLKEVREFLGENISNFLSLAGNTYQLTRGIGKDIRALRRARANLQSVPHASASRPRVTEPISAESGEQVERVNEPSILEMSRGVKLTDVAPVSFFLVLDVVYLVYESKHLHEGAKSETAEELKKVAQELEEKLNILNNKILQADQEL
Outline: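 Cells express GCaMP6f stably and APOL1 G2 after a 6 h doxycycline induction. Duplicate 8-point dilutions sit 10 min at room temperature in Ca2+-free Tyrode's (pH 7.4), then Ca2+ is injected to 5 mM final and the FLIPR signal recorded. AC50s are geometric means across ≥2 days.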

APOL1 G2 [2] = target: T1, APOL1 G2; assay: APOL1 G2 HEK293 rescue of cell death caused by overexpression of APOL1 (CellTiter-Glo); type: cell-based; details: HEK293/T-REx APOL1 G2 clone #2, doxycycline induction, 17 hours, CellTiter-Glo luminescence; reversal of cell death; geometric mean of at least 2 assay runs
Outline: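 Viability read by CellTiter-Glo luminescence after 17 h, 37 °C, in HEK293/T-REx cells expressing APOL1 G2 on 6 ng/mL doxycycline, 5,000 cells/well. Compounds tested as duplicate 8-point, 3-fold dilutions, 0.5% DMSO final; four-parameter logistic EC50, usually geometric mean of ≥2 days.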

Row | Structure (SMILES) | AC50 (APOL1 G2 [1]) [nM] | EC50 (APOL1 G2 [2]) [nM]
1 | C[C@@H]1C[C@H](COc2ccc(S(C)(=O)=O)cc2)CN1CC(CO)c1cc(Cl)cc(C#N)c1 (single isomer, unassigned) [Compound 129, 3-chloro-5-[(2R or 2S)-1-hydroxy-3-[(2R,4S)-4-[(4-methanesulfonylphenoxy)methyl]-2-methylpyrrolidin-1-yl]propan-2-yl]benzonitrile] | 4250 | 2140
2 | C[C@@H]1C[C@H](COc2ccc(S(C)(=O)=O)cc2)CN1CC(CO)c1cc(Cl)cc(C#N)c1 (single isomer, unassigned) [Compound 130, 3-chloro-5-[(2S or 2R)-1-hydroxy-3-[(2R,4S)-4-[(4-methanesulfonylphenoxy)methyl]-2-methylpyrrolidin-1-yl]propan-2-yl]benzonitrile] | 1940 | 303
3 | CS(=O)(=O)c1ccc(OC[C@@H]2CCCN(C3CCc4ccc(Cl)cc4C3)C2)cc1 (single isomer, unassigned) [Compound 132, (3R)-1-[(2S or 2R)-7-chloro-1,2,3,4-tetrahydronaphthalen-2-yl]-3-[(4-methanesulfonylphenoxy)methyl]piperidine] | 446 | 924
4 | CS(=O)(=O)c1ccc(OC[C@@H]2CCCN(C3CCc4ccc(Cl)cc4C3)C2)cc1 (single isomer, unassigned) [Compound 133, (3R)-1-[(2R or 2S)-7-chloro-1,2,3,4-tetrahydronaphthalen-2-yl]-3-[(4-methanesulfonylphenoxy)methyl]piperidine] | 1150 | 1910
5 | C[C@@H]1C[C@H](COc2ccc(S(C)(=O)=O)cc2)CN1C1CCc2c(C#N)cccc2C1 (single isomer, unassigned) [Compound 134, (6R or 6S)-6-[(2R,4S)-4-[(4-methanesulfonylphenoxy)methyl]-2-methylpyrrolidin-1-yl]-5,6,7,8-tetrahydronaphthalene-1-carbonitrile] | 601 | 292
6 | C[C@@H]1C[C@H](COc2ccc(S(C)(=O)=O)cc2)CN1C1CCc2c(C#N)cccc2C1 (single isomer, unassigned) [Compound 135, (6S or 6S)-6-[(2R,4S)-4-[(4-methanesulfonylphenoxy)methyl]-2-methylpyrrolidin-1-yl]-5,6,7,8-tetrahydronaphthalene-1-carbonitrile] | 576 | 84.2
7 | C[C@@H]1C[C@H](COc2ccc(S(C)(=O)=O)cc2)CN1C1CCc2ccc(C#N)cc2C1 (single isomer, unassigned) [Compound 136, (7S or 7R)-7-[(2R,4S)-4-[(4-methanesulfonylphenoxy)methyl]-2-methylpyrrolidin-1-yl]-5,6,7,8-tetrahydronaphthalene-2-carbonitrile] | 707 | 704
8 | C[C@@H]1C[C@H](COc2ccc(S(C)(=O)=O)cc2)CN1C1CCc2ccc(C#N)cc2C1 (single isomer, unassigned) [Compound 137, (7R or 7S)-7-[(2R,4S)-4-[(4-methanesulfonylphenoxy)methyl]-2-methylpyrrolidin-1-yl]-5,6,7,8-tetrahydronaphthalene-2-carbonitrile] | 222 | 35.8
9 | C[C@@H]1C[C@H](COc2ccc(S(C)(=O)=O)cc2)CN1C1CCc2c(Cl)cccc2C1 (single isomer, unassigned) [Compound 138, (2R,4S)-1-[(2R or 2S)-5-chloro-1,2,3,4-tetrahydronaphthalen-2-yl]-4-[(4-methanesulfonylphenoxy)methyl]-2-methylpyrrolidine] | 1080 | 149
10 | C[C@@H]1C[C@H](COc2ccc(S(C)(=O)=O)cc2)CN1C1CCc2c(Cl)cccc2C1 (single isomer, unassigned) [Compound 139, (2R,4S)-1-[(2S or 2R)-5-chloro-1,2,3,4-tetrahydronaphthalen-2-yl]-4-[(4-methanesulfonylphenoxy)methyl]-2-methylpyrrolidine] | 1260 | 260
11 | CC(c1ccc(OC[C@@H]2CN(CCc3cccc(Cl)c3)CCN2)cc1)S(C)(=O)=O (single isomer, unassigned) [Compound 141, (3S)-1-[2-(3-chlorophenyl)ethyl]-3-({4-[(1R) or (1S)-1-methanesulfonylethyl]phenoxy}methyl)piperazine] | 160 | 234
12 | CC(c1ccc(OC[C@@H]2CN(CCc3cccc(Cl)c3)CCN2)cc1)S(C)(=O)=O (single isomer, unassigned) [Compound 142, (3S)-1-[2-(3-chlorophenyl)ethyl]-3-({4-[(1S) or (1R)-1-methanesulfonylethyl]phenoxy}methyl)piperazine] | 703 | 231
13 | C[C@@H]1CN(CC(O)c2cccc(Cl)c2)C[C@H]1COc1ccc(S(C)(=O)=O)cc1 (single isomer, unassigned) [Compound 144, (1S) or (1R)-1-(3-chlorophenyl)-2-[trans-3-[(4-methanesulfonylphenoxy)methyl]-4-methylpyrrolidin-1-yl]ethan-1-ol] | 265 | 289
14 | C[C@@H]1C[C@H](COc2cnc(S(C)(=O)=O)cn2)CN1CCc1cccc(C#N)c1 [Compound 1, 3-(2-((2R,4S)-2-methyl-4-(((5-(methylsulfonyl)pyrazin-2-yl)oxy)methyl)pyrrolidin-1-yl)ethyl)benzonitrile] | 39.7 | 53.7
15 | C[C@@H]1C[C@H](COc2ccc(S(C)(=O)=O)cn2)CN1CCc1cc(Cl)cc(C#N)c1 [Compound 12, 3-chloro-5-{2-[(2R,4S)-4-{[(5-methanesulfonylpyridin-2-yl)oxy]methyl}-2-methylpyrrolidin-1-yl]ethyl}benzonitrile] | 279 | 99.2
16 | C[C@@H]1CN(CCc2cc(Cl)cc(C#N)c2)C[C@H]1COc1ccc(S(=O)(=O)C2(C)COC2)cc1 [Compound 13, 3-chloro-5-{2-[(3S,4S)-3-methyl-4-({4-[(3-methyloxetan-3-yl)sulfonyl]phenoxy}methyl)pyrrolidin-1-yl]ethyl}benzonitrile] | 290 | 41.4
17 | C[C@@H]1CN(C2CCc3ccc(Cl)cc3C2)C[C@H]1COc1ccc(S(C)(=O)=O)cc1 (stereo partly drawn) [Compound 14, (3S,4S)-1-[7-chloro-1,2,3,4-tetrahydronaphthalen-2-yl]-3-[(4-methanesulfonylphenoxy)methyl]-4-methylpyrrolidine] | 767 | 544
18 | CC(Cc1cc(Cl)cc(C#N)c1)N1C[C@@H](COc2ccc(S(C)(=O)=O)cc2)[C@H](C)C1 (stereo partly drawn) [Compound 17, 3-chloro-5-[2-[(3S,4S)-3-[(4-methanesulfonylphenoxy)methyl]-4-methylpyrrolidin-1-yl]propyl]benzonitrile] | 380 | 527
19 | C[C@@H]1CN(CCc2cccc(C#N)c2)C[C@H]1COc1cnc(S(C)(=O)=O)cn1 [Compound 20, 3-{2-[(3S,4S)-3-{[(5-methanesulfonylpyrazin-2-yl)oxy]methyl}-4-methylpyrrolidin-1-yl]ethyl}benzonitrile] | 776 | 1120
20 | CS(=O)(=O)c1ccc(OC[C@@H]2CN(CCc3cccc(Cl)c3)C[C@H]2CO)cc1 [Compound 21, [(3S,4S)-1-[2-(3-chlorophenyl)ethyl]-4-[(4-methanesulfonylphenoxy)methyl]pyrrolidin-3-yl]methanol] | 138 | 280
